# Reference: patent US6426355B1, “Heterocyclic carboxamide-containing thiourea inhibitors of herpes viruses containing phenylenediamine group” (American Home Products, priority 1998, dated 2002)
# What was measured:
# [1] = test system: HCMV recombinant mutant virus (RV145); assay: HCMV microtiter plate assay (beta-glucuronidase reporter); assay type: cell-based, Human Cytomegalovirus; conditions: HCMV in human foreskin fibroblasts
# In short: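 Human foreskin fibroblasts were infected with RV145 in the presence of inhibitor. β-glucuronidase under a viral promoter served as the replication marker. At 96 h post-infection, lysates in pH 7.0 phosphate with Triton X-100/sarkosyl were assayed colorimetrically or fluorometrically, and IC50 was estimated from varying inhibitor amounts.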
# HSV-1 = assay: HSV Antiviral (ELISA) assay; assay type: cell-based; conditions: HSV-1 in Vero cells
# In short: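 Vero cells in DMEM/2% FBS pretreated with compound 30 min before HSV-1 infection (MOI 0.006), then ~24 h at 37 °C. Viral gD detected by ELISA with β-galactosidase secondary and 4-methylumbelliferyl-galactoside (ex 365/em 450 nm); IC50 from fluorescence versus untreated infected cells.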
# VZV strain Ellen = assay: VZV Antiviral (ELISA) assay; assay type: cell-based; conditions: VZV strain Ellen in HFF cells; for % inhibition 10 ug/ml VZV: at 10 ug/ml
# In short: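 Antiviral IC50 is derived by comparing fluorescence with and without compound after a three-day culture of VZV-infected plus uninfected foreskin fibroblasts. Replication is quantified by ELISA against glycoprotein II, using a β-galactosidase secondary and methyl umbelliferyl-β-D-galactoside.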
SMILES,IC50 (ug/ml) HCMV [1],IC50 (ug/ml) HSV (HSV-1),IC50 (ug/ml) VZV (VZV strain Ellen),% inhibition 10 ug/ml VZV (VZV strain Ellen)
CC(C)(C)c1cccc(NC(=S)Nc2ccc(NC(=O)c3csnn3)cc2)c1 [Example 509],0.03 µg/mL,>10 µg/mL,>10 µg/mL,31%
O=C(Nc1ccc(NC(=S)NCc2cccc(Cl)c2)cc1)c1ccco1 [Example 510],0.04 µg/mL,8 µg/mL,>10 µg/mL,19%
O=C(Nc1ccc(NC(=S)Nc2cccc(Br)c2)cc1)c1csnn1 [Example 513],0.011 µg/mL,>10 µg/mL,>10 µg/mL,10%
O=C(Nc1ccc(NC(=S)Nc2cc(C(F)(F)F)cc(C(F)(F)F)c2)cc1)c1ccco1 [Example 516],0.04 µg/mL,>10 µg/mL,>10 µg/mL,7%
Nc1c(Br)cc(NC(=S)Nc2ccc(NC(=O)c3csnn3)cc2)cc1Br [Example 521],0.04 µg/mL,10 µg/mL,3 µg/mL,97%
CN(C)c1cc(Cl)cc(NC(=S)Nc2ccc(NC(=O)c3csnn3)cc2)c1 [Example 522],0.025 µg/mL,>10 µg/mL,>10 µg/mL,32%
CN(C)c1cc(Cl)cc(NC(=S)Nc2ccc(NC(=O)c3ccco3)cc2)c1 [Example 524],0.055 µg/mL,4 µg/mL,2 µg/mL,95%
O=C(Nc1ccc(NC(=S)Nc2ccc3[nH]nnc3c2)cc1)c1ccco1 [Example 526],3 µg/mL,>10 µg/mL,2.5 µg/mL,22%
O=C(Nc1ccc(NC(=S)NNc2cccc(Cl)c2)cc1)c1ccco1 [Example 528],0.25 µg/mL,3.2 µg/mL,5 µg/mL,107%
Nc1c(Cl)cc(C(F)(F)F)cc1NC(=S)Nc1ccc(NC(=O)c2ccco2)cc1 [Example 530],0.15 µg/mL,5 µg/mL,6 µg/mL,96%
O=C(Nc1ccc(NC(=S)Nc2cc(Br)cc(C(F)(F)F)c2)cc1)c1csnn1 [Example 532],0.009 µg/mL,>10 µg/mL,6 µg/mL,–
Nc1c(Cl)cc(C(F)(F)F)cc1NC(=S)Nc1ccc(NC(=O)c2csnn2)cc1 [Example 534],0.05 µg/mL,7 µg/mL,>10 µg/mL,–
O=C(Nc1ccc(NC(=S)Nc2cc(N3CCCCC3)cc(C(F)(F)F)c2)cc1)c1csnn1 [Example 535],0.016 µg/mL,>10 µg/mL,>10 µg/mL,–
O=C(Nc1ccc(NC(=S)NCc2ccc(Cl)c(Cl)c2)cc1)c1csnn1 [Example 537],0.003 µg/mL,9 µg/mL,10 µg/mL,–
O=C(Nc1ccc(NC(=S)NCc2ccccc2)cc1)c1csnn1 [Example 539],0.036 µg/mL,>10 µg/mL,>10 µg/mL,–
O=C(Nc1ccc(NC(=S)NCc2ccc3c(c2)OCO3)cc1)c1csnn1 [Example 541],0.017 µg/mL,7 µg/mL,>10 µg/mL,–
O=C(Nc1ccc(NC(=S)NCc2cc(C(F)(F)F)cc(C(F)(F)F)c2)cc1)c1csnn1 [Example 542],0.0011 µg/mL,>10 µg/mL,>10 µg/mL,–
O=C(Nc1ccc(NC(=S)NCc2ccccc2)cc1)c1ccco1 [Example 544],0.02 µg/mL,>10 µg/mL,>10 µg/mL,–
O=C(Nc1ccc(NC(=S)NCc2ccc(Cl)c(Cl)c2)cc1)c1ccco1 [Example 545],0.012 µg/mL,3 µg/mL,7 µg/mL,–
O=C(Nc1ccc(NC(=S)NCc2cc(C(F)(F)F)cc(C(F)(F)F)c2)cc1)c1ccco1 [Example 547],0.006 µg/mL,>10 µg/mL,10 µg/mL,–
O=C(Nc1ccc(NC(=S)Nc2ccc(Br)c(C(F)(F)F)c2)cc1)c1csnn1 [Example 548],0.008 µg/mL,>10 µg/mL,>lo,–
O=C(Nc1ccc(NC(=S)Nc2ccc(OC(F)(F)F)c(Br)c2)cc1)c1csnn1 [Example 550],0.013 µg/mL,>10 µg/mL,>10 µg/mL,–
O=C(Nc1ccc(NC(=S)Nc2ccc(SC(F)(F)F)c(Cl)c2)cc1)c1ccco1 [Example 551],0.043 µg/mL,>10 µg/mL,>10 µg/mL,–
O=C(Nc1ccc(NC(=S)NCCc2cccc(F)c2)cc1)c1csnn1 [Example 554],0.01 µg/mL,>10 µg/mL,1.5 µg/mL,–
O=C(Nc1ccc(NC(=S)NCCc2ccc(F)cc2)cc1)c1csnn1 [Example 555],0.008 µg/mL,>10 µg/mL,4 µg/mL,–
CCC(C)Cc1cc(NC(=S)Nc2ccc(NC(=O)c3csnn3)cc2)cc(C(F)(F)F)c1 (stereo not shown) [Example 556],0.006 µg/mL,>10 µg/mL,>7.5 µg/mL,–
CC(C)Cc1cc(NC(=S)Nc2ccc(NC(=O)c3csnn3)cc2)cc(C(F)(F)F)c1 [Example 557],0.006 µg/mL,>10 µg/mL,>10 µg/mL,–
CN1CCN(c2cc(NC(=S)Nc3ccc(NC(=O)c4csnn4)cc3)cc(C(F)(F)F)c2)CC1 [Example 558],0.05 µg/mL,7 µg/mL,>10 µg/mL,–
